pKi: −log10 of the molar value. Counter-ions that a name gives are not always drawn.

T1 sequence (P28845 whole entry): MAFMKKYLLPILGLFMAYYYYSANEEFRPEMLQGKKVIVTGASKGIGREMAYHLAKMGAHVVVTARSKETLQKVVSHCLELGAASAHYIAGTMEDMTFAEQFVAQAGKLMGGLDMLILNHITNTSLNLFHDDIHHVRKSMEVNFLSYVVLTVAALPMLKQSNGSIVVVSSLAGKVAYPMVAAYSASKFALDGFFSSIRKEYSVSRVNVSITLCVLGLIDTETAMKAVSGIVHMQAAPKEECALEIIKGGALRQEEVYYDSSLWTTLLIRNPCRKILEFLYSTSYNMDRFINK

Test system in the first data set: not given
Experiment: not given
Settings: not given
Consider `Cc1c(Cl)cccc1NC(=O)CC1SC(NC2CC3C=CC2C3)=NC1=O` (stereo not drawn) [Example 73, 2-[2-(Bicyclo[2.2.1]hept-5-en-2-ylamino)-4-oxo-4,5-dihydro-1,3-thiazol-5-yl]-N-(3-chloro-2-methylphenyl)acetamide], for which the melting point (usually the temperature of the solid-liquid transition) lay in the range of 201 to 202 °C.
On the same count and under the same terms, the figure for `O=C(CC1SC(NC2CC3C=CC2C3)=NC1=O)NCc1ccccc1` (stereo not drawn) [Example 74, N-Benzyl-2-[2-(bicyclo[2.2.1]hept-5-en-2-ylamino)-4-oxo-4,5-dihydro-1,3-thiazol-5-yl]acetamide] is 206 to 207 °C.
Regarding `O=C(CC1SC(NC2CCCCC2)=NC1=O)Nc1ccccc1Cl` (stereo not drawn) [Example 97, N-(2-Chlorophenyl)-2-[2-(cyclohexylamino)-4-oxo-4,5-dihydro-1,3-thiazol-5-yl]acetamide], the melting point is 183 °C.
On to `O=C(CC1SC(N2CCCCC2)=NC1=O)Nc1ccccc1Cl` (stereo not drawn) [Example 98, N-(2-Chlorophenyl)-2-(4-oxo-2-piperidin-1-yl-4,5-dihydro-1,3-thiazol-5-yl)acetamide], for which the melting point was 177 °C.
The same measure, in the same setting: the figure for `O=C(CC1SC(NC2CC3C=CC2C3)=NC1=O)Nc1ccccc1` (stereo not drawn) [Example 99, 2-[2-(Bicyclo[2.2.1]hept-5-en-2-ylamino)-4-oxo-4,5-dihydro-1,3-thiazol-5-yl]-N-phenylacetamide] is 216 to 217 °C; for `O=C(CC1SC(NC2CC3C=CC2C3)=NC1=O)Nc1ccc2cn[nH]c2c1` (stereo not drawn) [Example 100, 2-[2-(Bicyclo[2.2.1]hept-5-en-2-ylamino)-4-oxo-4,5-dihydro-1,3-thiazol-5-yl]-N-1H-indazol-6-ylacetamide] it is 222 to 223 °C.
`O=C(CC1SC(NC2CC3C=CC2C3)=NC1=O)Nc1ccc(F)cc1` (stereo not drawn) [Example 101, 2-[2-(Bicyclo[2.2.1]hept-5-en-2-ylamino)-4-oxo-4,5-dihydro-1,3-thiazol-5-yl]-N-(4-fluorophenyl)acetamide]: the melting point came to 215 °C.
Turning to `O=C(CC1SC(NC2CC3C=CC2C3)=NC1=O)Nc1ccccc1C(=O)c1ccccc1` (stereo not drawn) [Example 102, N-(2-benzoylphenyl)-2-[2-(Bicyclo[2.2.1]hept-5-en-2-ylamino)-4-oxo-4,5-dihydro-1,3-thiazol-5-yl]acetamide], the melting point lay within 191 to 192 °C.
On the same count and under the same terms, the figure for `O=C(CC1SC(NC2CC3C=CC2C3)=NC1=O)Nc1cccc(C(=O)O)c1` (stereo not drawn) [Example 103, 3-({[2-(Bicyclo[2.2.1]hept-5-en-2-ylamino)-4-oxo-4,5-dihydro-1,3-thiazol-5-yl]acetyl}amino)benzoic acid] is 242 °C.
In the case of `CCNC(=O)CC1SC(NC2CC3C=CC2C3)=NC1=O` (stereo not drawn) [Example 104, 2-[2-(Bicyclo[2.2.1]hept-5-en-2-ylamino)-4-oxo-4,5-dihydro-1,3-thiazol-5-yl]-N-ethylacetamide], the melting point fell in the range of 187 to 188 °C.
Still for that read-out and setting: the figure for `CNC(=O)CC1SC(NC2CC3C=CC2C3)=NC1=O` (stereo not drawn) [Example 105, 2-[2-(Bicyclo[2.2.1]hept-5-en-2-ylamino)-4-oxo-4,5-dihydro-1,3-thiazol-5-yl]-N-methylacetamide] is 205 °C; for `CN(C(=O)CC1SC(NC2CC3C=CC2C3)=NC1=O)c1ccccc1Cl` (stereo not drawn) [Example 107, 2-[2-(Bicyclo[2.2.1]hept-5-en-2-ylamino)-4-oxo-4,5-dihydro-1,3-thiazol-5-yl]-N-(2-chlorophenyl)-N-methylacetamide] it is 149 to 150 °C.
Same read-out and setting: as for `O=C(CC1SC(NC2CC3C=CC2C3)=NC1=O)Oc1ccccc1Cl` (stereo not drawn) [Example 279, 2-Chlorophenyl [2-(bicyclo[2.2.1]hept-5-en-2-ylamino)-4-oxo-4,5-dihydro-1,3-thiazol-5-yl]acetate], the figure is 211 °C.
On to `COc1ccccc1OC(=O)CC1SC(NC2CC3C=CC2C3)=NC1=O` (stereo not drawn) [Example 281, 2-Methoxyphenyl [2-(bicyclo[2.2.1]hept-5-en-2-ylamino)-4-oxo-4,5-dihydro-1,3-thiazol-5-yl]acetate], for which the melting point was 175 to 176 °C.
Consider `O=C(CC1SC(NC2CC3C=CC2C3)=NC1=O)Oc1cccc(N2CCOCC2)c1` (stereo not drawn) [Example 282, 3-Morpholin-4-ylphenyl [2-(bicyclo[2.2.1]hept-5-en-2-ylamino)-4-oxo-4,5-dihydro-1,3-thiazol-5-yl]acetate], for which the melting point fell in the range of 203 to 204 °C.
The compound `O=C(CC1SC(NC2CC3C=CC2C3)=NC1=O)c1ccc(Cl)cc1` (stereo not drawn) [Example 283, 2-(Bicyclo[2.2.1]hept-5-en-2-ylamino)-5-[2-(4-chlorophenyl)-2-oxoethyl]-1,3-thiazol-4(5H)-one] displayed a melting point of 244 to 245 °C.
Regarding `O=C(O)CC1SC(NC2CC3C=CC2C3)=NC1=O` (stereo not drawn) [Example 288, [2-(Bicyclo[2.2.1]hept-5-en-2-ylamino)-4-oxo4,5-dihydro-1,3-thiazol-5-yl]acetic acid], the melting point was 232 °C.

A further data set addresses T1, human 11-β-hydroxysteroid dehydrogenase type-1 enzyme (11-β-HSD1) (Homo sapiens, UniProt P28845).
T1 construct: made in house; host or cells: Pichia pastoris
Kind of data set: Scintillation Proximity Assay (11-β-HSD1 enzyme assay). Format: biochemical. To be noted: calculated from IC50 (Cheng Prushoff); tritiated Cortisone/NADPH 175 nM/181 μM; enzyme expressed in Pichia pastoris. An excerpt: Scintillation Proximity Assay
[1,2(n)-^3H]-cortisone was purchased from Amersham Pharmacia Biotech. Anti-cortisol monoclonal mouse antibody, clone 6D6.7 was obtained from Immunotech and Scintillation proximity assay (SPA) beads coated with monoclonal antimouse antibodies were from Amersham Pharmacia Biotech. NADPH, tetrasodium salt was from Calbiochem and glucose-6-phosphate (G-6-P) was supplied by Sigma. The human 11-β-hydroxysteroid dehydrogenase type-1 enzyme (11-β-HSD1) was expressed in Pichia pastoris. 18-β-glycyrrhetinic acid (GA) was obtained from Sigma. The serial dilutions of the compounds were performed on a Tecan Genesis RSP 150. Compounds to be tested were dissolved in DMSO (1 mM) and diluted in 50 mM Tris-HCl, pH 7.2 containing 1 mM EDTA.
The multiplication of plates was done on a WallacQuadra. The amount of the product [^3H]-cortisol, bound to the beads was determined in a Packard, Top Count microplate liquid scintillation counter.
The 11-β-HSD1 enzyme assay was carried out in 96 well microtiter plates (Packard, Optiplate) in a total well volume of 220 μL and contained 30 mM Tris-HCl, pH 7.2 with 1 mM EDTA, a substrate mixture tritiated Cortisone/NADPH (175 nM/181 μM), G-6-P (1 mM) and inhibitors in serial dilutions (9 to 0.15 μM). Reactions were initiated by the addition of human 11-β-HSD1, either as Pichia pastoris cell homogenate or microsomes prepared from Pichia pastoris (the final amount of enzyme used was varied between 0.057 to 0.11 mg/mL). Following mixing, the plates were shaken for 30 to 45 minutes at room temperature. The reactions were terminated with 10 μL 1 mM GA stop solution. Monoclonal mouse antibody was then added (10 μL of 4 μM) followed by 100 μL of SPA beads (suspended according to the manufacturers instructions). Appropriate controls were set up by omitting the 11-β-HSD1 to obtain the non-specific binding (NSB) value.
The plates were covered with plastic film and incubated on a shaker for 30 minutes, at room temperature, before counting. The amount of [^3H]-cortisol, bound to the beads was determined in a microplate liquid scintillation counter. The calculation of the Ki values for the inhibitors was performed by use of Activity Base. The Ki value is calculated from IC50 and the Km value is calculated using the Cheng Prushoff equation (with reversible inhibition that follows the Michaelis-Menten equation): Ki=IC50(1+[S]/Km) [Cheng, Y. C.; Prushoff, W. H. Biochem. Pharmacol. 1973, 22, 3099-3108]. The IC50 is measured experimentally in an assay wherein the decrease of the turnover of cortisone to cortisol is dependent on the inhibition potential of each substance. The Ki values of the compounds of the present invention for the 11-β-HSD1 enzyme lie typically between about 10 nM and about 10 μM.
For `Cc1c(Cl)cccc1NC1=NC(=O)C(CC(=O)N(C)c2ccccc2)S1` (stereo not drawn) [Example 109, 2-{2-[(3-chloro-2-methylphenyl)amino]-4-oxo-4,5-dihydro-1,3-thiazol-5-yl}-N-methyl-N-phenylacetamide], the pKi – broadly, the negative decadic logarithm of the Ki, by convention in mol/L – is 6.15.
On to `CCC(C)CNC1=NC(=O)C(CC(=O)N2CCCc3ccccc32)S1` (stereo not drawn) [Example 125, 5-[2-(3,4-dihydroquinolin-1(2H)-yl)-2-oxoethyl]-2-[(2-methylbutyl)amino]-1,3-thiazol-4(5H)-one], for which the negative logarithm of the Ki (pKi) was 6.42.
Still for that read-out and setting: as for `O=C(NCCC1SC(NC2CCCCCC2)=NC1=O)Nc1ccccc1Cl` (stereo not drawn) [Example 261, N-(2-chlorophenyl)-N′-{2-[2-(cycloheptylamino)-4-oxo-4,5-dihydro-1,3-thiazol-5-yl]ethyl}urea], the figure is 6.25; as for `O=C1N=C(NC2(c3ccc(Cl)cc3)CCC2)SC1CCNc1ccccc1` (stereo not drawn) [Example 335, 5-(2-anilinoethyl)-2-{[1-(4-chlorophenyl)cyclobutyl]amino}-1,3-thiazol-4(5H)-one hydrobromide], 6.27.

The values are drawn from US20050239853A1, “New compounds” (priority 2004, published 2005).
